According to patent publication US9821070B2 (OPKO Biologics Ltd., priority 2012, dated 2017):

Tests used:
[1] = Obese (ob/ob) mouse model, Study 2 (MOD-6031 chronic pharmacology); format: in vivo, male ob/ob mice; details: OXM 6000 nmoles/kg bid sc for 32 days
Procedure: Body weight, food and water intake were recorded daily. […] Body weight, food and water intake were measured daily.
Oral glucose tolerant test (OGTT) studies were performed on days 2 and day 30 (FIGS. 10 and 11, respectively).

[2] = target: GLP-1 receptor (Homo sapiens, UniProt P43220); details: cAMP Hunter CHO-K1 GLP1R
Chain of GLP-1 receptor (P43220 24-463): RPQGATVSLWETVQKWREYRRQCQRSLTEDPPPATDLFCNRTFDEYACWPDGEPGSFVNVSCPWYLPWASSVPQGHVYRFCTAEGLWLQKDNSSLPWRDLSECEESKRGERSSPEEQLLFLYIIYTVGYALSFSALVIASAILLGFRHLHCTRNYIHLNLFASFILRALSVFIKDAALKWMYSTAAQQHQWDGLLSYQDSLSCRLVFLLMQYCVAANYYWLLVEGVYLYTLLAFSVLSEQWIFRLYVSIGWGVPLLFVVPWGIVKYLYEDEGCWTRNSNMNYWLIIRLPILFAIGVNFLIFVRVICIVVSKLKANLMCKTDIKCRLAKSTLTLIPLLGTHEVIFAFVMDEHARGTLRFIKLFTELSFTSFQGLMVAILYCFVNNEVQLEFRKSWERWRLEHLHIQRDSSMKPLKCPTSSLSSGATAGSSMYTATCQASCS
Procedure: Cells cAMP concentrations were quantified by HTRF assay (Cisbio 62AM4PEB) and EC50 parameter was analyzed by PRISM software. The cAMP Hunter™ CHO-K1 GLP1R secretes cAMP upon binding of the ligand to the receptor. […] Ligands were diluted in diluent contains IBMX and were added in duplicate to the culture wells for 30 min at 37° C. with 5% CO2. […] The dose dependent curves were established and the binding affinities (EC50) of various ligands were calculated using PRISM software by applying the best fit dose response model (Four parameters).

Q: Which results are given for Oxyntomodulin [OXM]?
A: body weight reduction over the study [1]: 10.3%; higher GLP-1 receptor binding activation compared to the heterogeneous PEG30-FMS-OXM [2]: 5.9 fold
